According to ChEMBL document CHEMBL5634129, “Design, synthesis, and structure-activity relationships of a novel class of quinazoline derivatives as coronavirus inhibitors” (Eur J Med Chem, 2023):
pEC50: −log10 of the molar value. Activity calls are given as the source filed them. The rule behind the calls is not given here.

Columns and labels:
[1] = Cytotoxicity in human NCI-H460 cells infected with HCoV-OC43 treated for 72 hrs by CPE inhibition assay; assay type: toxicity, cell-based; conditions: read-out: TC50
Human coronavirus OC43 [2] = experiment: Antiviral activity against HCoV-OC43 infected in human NCI-H460 cells treated for 72 hrs by CPE inhibition assay; assay type: functional, organism-based; conditions: Betacoronavirus 1, NCI-H460, 72 h
[3] = Selectivity index, ratio of TC50 for human NCI-H460 cells infected with HCoV-OC43 to EC50 for HCoV-OC43 infected in human NCI-H460 cells; assay type: toxicity, cell-based; conditions: read-out: Selectivity Index
Human coronavirus OC43 [4] = experiment: Antiviral activity against HCoV-OC43 infected in human H460 cells assessed as decrease in viral nucleocapsid protein mRNA level by qRT-PCR analysis; assay type: functional, organism-based; conditions: NCI-H460, dose 0.1-10 µM
Human coronavirus OC43 [5] = experiment: Antiviral activity against HCoV-OC43 infected in human H460 cells assessed as decrease in viral nucleocapsid protein level by Hoechst 33342 staining based analysis; assay type: functional, organism-based; conditions: NCI-H460, dose 0.1-10 µM
Human coronavirus OC43 [6] = experiment: Antiviral activity against HCoV-OC43 infected in human H460 cells assessed as decrease in viral nucleocapsid protein level at 10 uM by Hoechst 33342 staining based analysis relative to control; assay type: functional, NCI-H460; design: scale not given: the % may be the effect or the level left
Human coronavirus OC43 [7] = experiment: Antiviral activity against HCoV-OC43 infected in human H460 cells assessed as viral inhibition at early stage at 10 uM measured upto 12 hrs by Hoechst 33342 staining based analysis; assay type: functional, organism-based; conditions: NCI-H460
Human coronavirus OC43 [8] = experiment: Antiviral activity against HCoV-OC43 infected in human H460 cells assessed as decrease in viral nucleocapsid protein level at 2 uM by Hoechst 33342 staining based analysis; assay type: functional, organism-based; conditions: NCI-H460
Human coronavirus OC43 [9] = experiment: Antiviral activity against HCoV-OC43 infected in human H460 cells assessed as viral inhibition at early stage at 500 nM measured upto 12 hrs by Hoechst 33342 staining based analysis; assay type: functional, organism-based; conditions: NCI-H460

CCOc1ccc2nc(NCCN3CCOCC3)nc(Nc3cc(C(F)(F)F)cc(C(F)(F)F)c3)c2c1
CC50 at 72 h [1]: 5.77 µM | pEC50 (Human coronavirus OC43 [2]): 6.92 | selectivity ratio [3]: 48.1 | Activity (Human coronavirus OC43 [4]): Dose-Dependent Effect | Activity (Human coronavirus OC43 [5]): Dose-Dependent Effect | Activity (Human coronavirus OC43 [6]): 100%

CCOc1ccc2nc(NCC3CCCO3)nc(Nc3cc(C(F)(F)F)cc(C(F)(F)F)c3)c2c1 (configuration not stated)
CC50 at 72 h [1]: 96.2 µM | pEC50 (Human coronavirus OC43 [2]): 7.05 | selectivity ratio [3]: 1070 | Activity (Human coronavirus OC43 [4]): Dose-Dependent Effect | Activity (Human coronavirus OC43 [5]): Dose-Dependent Effect | Activity (Human coronavirus OC43 [6]): 100% | inhibition (Human coronavirus OC43 [7]): Active

CCOc1ccc2nc(NCCOC)nc(Nc3cc(C(F)(F)F)cc(C(F)(F)F)c3)c2c1
CC50 at 72 h [1]: 5.77 µM | pEC50 (Human coronavirus OC43 [2]): 7.00 | selectivity ratio [3]: 57.7 | Activity (Human coronavirus OC43 [4]): Dose-Dependent Effect | Activity (Human coronavirus OC43 [5]): Dose-Dependent Effect | Activity (Human coronavirus OC43 [6]): 100%

FC(F)(F)c1cc(Nc2ncnc3ccc(C(F)(F)F)cc23)cc(C(F)(F)F)c1
CC50 at 72 h [1]: 4.28 µM | pEC50 (Human coronavirus OC43 [2]): 6.64 | selectivity ratio [3]: 18.6

COc1ccc2ncnc(Sc3cc(C(F)(F)F)cc(C(F)(F)F)c3)c2c1
CC50 at 72 h [1]: 96.2 µM | pEC50 (Human coronavirus OC43 [2]): < 4.26 | selectivity ratio [3]: 96.2

COC(=O)c1cc(Nc2ncnc3ccc(OC)cc23)cc(C(F)(F)F)c1
CC50 at 72 h [1]: 26.7 µM | pEC50 (Human coronavirus OC43 [2]): 6.32 | selectivity ratio [3]: 55.6

COC(=O)c1cc(Cl)cc(Nc2ncnc3ccc(OC)cc23)c1
CC50 at 72 h [1]: 129 µM | pEC50 (Human coronavirus OC43 [2]): 5.84 | selectivity ratio [3]: 90.4

CCOc1ccc2nc(NC(C)C)nc(Nc3cc(C(F)(F)F)cc(C(F)(F)F)c3)c2c1
CC50 at 72 h [1]: 8.9 µM | pEC50 (Human coronavirus OC43 [2]): 5.84 | selectivity ratio [3]: 6.2

CCC(CC)COC(=O)[C@H](C)N[P@](=O)(OC[C@H]1O[C@@](C#N)(c2ccc3c(N)ncnn23)[C@H](O)[C@@H]1O)Oc1ccccc1 [REMDESIVIR]
CC50 at 72 h [1]: > 20 µM | pEC50 (Human coronavirus OC43 [2]): 6.85 | selectivity ratio [3]: > 143 | Activity (Human coronavirus OC43 [8]): Active | inhibition (Human coronavirus OC43 [9]): Active

CCOc1ccc2nc(NCc3cccs3)nc(Nc3cc(C(F)(F)F)cc(C(F)(F)F)c3)c2c1
CC50 at 72 h [1]: 10.7 µM | pEC50 (Human coronavirus OC43 [2]): 5.53 | selectivity ratio [3]: 3.6

COc1ccc2ncnc(Nc3ccc(F)c(Cl)c3)c2c1
CC50 at 72 h [1]: 12.8 µM | pEC50 (Human coronavirus OC43 [2]): 5.45 | selectivity ratio [3]: 3.6

FC(F)(F)c1cc(Nc2ncnc3cnc(Cl)cc23)cc(C(F)(F)F)c1
CC50 at 72 h [1]: 1.71 µM | pEC50 (Human coronavirus OC43 [2]): 6.82 | selectivity ratio [3]: 11.4

CCOc1ccc2ncnc(Nc3cc(C(F)(F)F)cc(C(F)(F)F)c3)c2c1
CC50 at 72 h [1]: 219 µM | pEC50 (Human coronavirus OC43 [2]): 6.16 | selectivity ratio [3]: 318

COc1ccc2ncnc(Nc3cc([N+](=O)[O-])cc(C(F)(F)F)c3)c2c1
CC50 at 72 h [1]: 96.2 µM | pEC50 (Human coronavirus OC43 [2]): 6.16 | selectivity ratio [3]: 140

COc1ccc2ncnc(Oc3cc(C(F)(F)F)cc(C(F)(F)F)c3)c2c1
CC50 at 72 h [1]: 240 µM | pEC50 (Human coronavirus OC43 [2]): < 4.26 | selectivity ratio [3]: 240

COc1ccc2ncnc(Nc3cc(F)cc(C#N)c3)c2c1
CC50 at 72 h [1]: 388 µM | pEC50 (Human coronavirus OC43 [2]): 4.62 | selectivity ratio [3]: 16.3

O=[N+]([O-])c1ccc2ncnc(Nc3cc(C(F)(F)F)cc(C(F)(F)F)c3)c2c1
CC50 at 72 h [1]: 3.56 µM | pEC50 (Human coronavirus OC43 [2]): 6.54 | selectivity ratio [3]: 12.3

Cc1ccc2ncnc(Nc3cc(C(F)(F)F)cc(C(F)(F)F)c3)c2c1
CC50 at 72 h [1]: 96.2 µM | pEC50 (Human coronavirus OC43 [2]): 5.92 | selectivity ratio [3]: 80.9

CCOc1ccc2nc(NCC(=O)OC(C)(C)C)nc(Nc3cc(C(F)(F)F)cc(C(F)(F)F)c3)c2c1
CC50 at 72 h [1]: 18.5 µM | pEC50 (Human coronavirus OC43 [2]): 5.45 | selectivity ratio [3]: 5.2

FC(F)(F)c1cc(Nc2ncnc3cccnc23)cc(C(F)(F)F)c1
CC50 at 72 h [1]: 240 µM | pEC50 (Human coronavirus OC43 [2]): 4.49 | selectivity ratio [3]: 7.5

FC(F)(F)c1cc(Nc2ncnc3cc(Cl)ccc23)cc(C(F)(F)F)c1
CC50 at 72 h [1]: 1.43 µM | pEC50 (Human coronavirus OC43 [2]): 6.33 | selectivity ratio [3]: 3

FC(F)(F)c1cc(Nc2ncnc3ccc(I)cc23)cc(C(F)(F)F)c1
CC50 at 72 h [1]: 7.95 µM | pEC50 (Human coronavirus OC43 [2]): 6.32 | selectivity ratio [3]: 16.6

CCOc1ccc2nc(NC3CC3)nc(Nc3cc(C(F)(F)F)cc(C(F)(F)F)c3)c2c1
CC50 at 72 h [1]: 4.81 µM | pEC50 (Human coronavirus OC43 [2]): 6.51 | selectivity ratio [3]: 15.5

COc1ccc2ncnc(Nc3cc(C#N)cc(C(F)(F)F)c3)c2c1
CC50 at 72 h [1]: 240 µM | pEC50 (Human coronavirus OC43 [2]): 6.32 | selectivity ratio [3]: 501

COc1ccc2ncnc(Nc3ccc(F)c(C(F)(F)F)c3)c2c1
CC50 at 72 h [1]: 26.7 µM | pEC50 (Human coronavirus OC43 [2]): 5.84 | selectivity ratio [3]: 18.7

Nc1ccc2ncnc(Nc3cc(C(F)(F)F)cc(C(F)(F)F)c3)c2c1
CC50 at 72 h [1]: 10.7 µM | pEC50 (Human coronavirus OC43 [2]): 6.32 | selectivity ratio [3]: 22.3

FC(F)(F)c1cc(Nc2ncnc3ccc(Cl)cc23)cc(C(F)(F)F)c1
CC50 at 72 h [1]: 1.71 µM | pEC50 (Human coronavirus OC43 [2]): 6.80 | selectivity ratio [3]: 10.8

CCCCNc1nc(Nc2cc(C(F)(F)F)cc(C(F)(F)F)c2)c2cc(OCC)ccc2n1
CC50 at 72 h [1]: 10.7 µM | pEC50 (Human coronavirus OC43 [2]): 5.84 | selectivity ratio [3]: 7.5

CCCNc1nc(Nc2cc(C(F)(F)F)cc(C(F)(F)F)c2)c2cc(OCC)ccc2n1
CC50 at 72 h [1]: 6.17 µM | pEC50 (Human coronavirus OC43 [2]): 6.16 | selectivity ratio [3]: 9

CCOc1ccc2nc(NCCN3CCN(C)CC3)nc(Nc3cc(C(F)(F)F)cc(C(F)(F)F)c3)c2c1
CC50 at 72 h [1]: 5.77 µM | pEC50 (Human coronavirus OC43 [2]): 6.28 | selectivity ratio [3]: 10.9
